Earlier results as cited in patent US9272137B2, “Transdermal methods and systems for the delivery of anti-migraine compounds” (Teva Pharmaceuticals International GmbH, priority 2006, dated 2016).

serum elimination half-life (in vivo): 2 h | time within which most of the active drug is eliminated (majority of patients): 4 to 6 h
Structure (SMILES): CNS(=O)(=O)Cc1ccc2[nH]cc(CCN(C)C)c2c1 [Sumatriptan]
